# Measured values as given in US20080020076A1, “Methods and Therapies for Potentiating a Therapeutic Action of an Alpha-2 Adrenergic Receptor Agonist and Inhibiting and/or Reversing Tolerance to Alpha-2 Adrenergic Receptor Agonists” (priority 2006, published 2008).
# Experiments:
# [1] = tested on: alpha-2 adrenergic receptor; assay: acute tolerance to spinal L-norepinephrine analgesia, tail flick test; format: in vivo, rat
# Experimental: (§1) The effect of normal saline (20 μl) was also evaluated by injection at 90 minute intervals. Pain responses were evaluated in the tail flick and paw pressure test at 30 minute intervals.
# (§2) Experiments were conducted using adult male Sprague-Dawley rats (Charles River, St. Constant, QC, Canada) weighing between 200-250 grams. Animals were housed individually in standard laboratory cages, maintained on a 12-hour light/dark cycle, and provided with food and water ad libitum. The surgical placement of chronic indwelling intrathecal catheters (polyethylene PE 10 tubing, 7.5 cm) into the spinal subarachnoid space was made under 4% halothane anesthesia, using the method of Yaksh and Rudy Physiol. Behav. 1976 7:1032-1036). Specifically, the anesthetized animal was placed prone in a stereotaxic frame, a small incision made at the back of the neck, and the atlanto-occipital membrane overlying the cisterna magna was exposed and punctured with a blunt needle. The catheter was inserted through the cisternal opening and slowly advanced caudally to position its tip at the lumbar enlargement. The rostral end of the catheter was exteriorized at the top of the head and the wound closed with sutures. Animals were allowed 3-4 days recovery from surgery and only those free from neurological deficits, such as the hindlimb or forelimb paralysis or gross motor dysfunction, were included in the study. All drugs were injected intrathecally as solutions dissolved in physiological saline (0.9%) through the exteriorized portion of the catheter at a volume of 10 μl, followed by a 10 μl volume of 0.9% saline to flush the catheter.
# The tail flick test (D'amour & Smith, J. Pharmacol. Exp. Ther. 1941 72:74-79) was used to measure the response to a thermal nociceptive stimulus. Radiant heat was applied to the distal third of the animal's tail and the response latency for tail withdrawal from the source was recorded using an analgesia meter (Owen et al., J. Pharmacol. Methods 1981 6:33-37)). The stimulus intensity was adjusted to yield baseline response latencies between 2-3 seconds. To minimize tail damage, a cutoff of 10 seconds was used as an indicator of maximum antinociception.
# (§3) For the in vivo studies, tail flick and paw pressure values were converted to a maximum percentage effect (M.P.E.): M.P.E.=100×[post-drug response−baseline response]/[maximum response−baseline response]. Data represented in the figures are expressed as mean (±S.E.M.). The ED50 values were determined using a non-linear regression analysis (Prism 2, GraphPad Software Inc., San Diego, Calif., USA). Statistical significance (p<0.05, 0.01. or 0.001) was determined using a one-way analysis of variance followed by a Student Newman-Keuls post hoc test for multiple comparisons between groups.
# [2] = tested on: alpha-2 adrenergic receptor; assay: acute tolerance to spinal L-norepinephrine analgesia, paw pressure test; format: in vivo, rat
# Experimental: as §1, §2
# (§4) The paw pressure test (Loomis et al., Pharm. Biochem. 1987 26:131-139) was used to measure the response to a mechanical nociceptive stimulus. Pressure was applied to the dorsal surface of the hind paw using an inverted air-filled syringe connected to a gauge and the value at which the animal withdrew its paw was recorded. A maximum cutoff pressure of 300 mmHg was used to avoid tissue damage.
# as §3
# alpha-2 adrenoceptors = conditions: versus yohimbine; cited from earlier work
# [3] = tested on: alpha-2 adrenergic receptor; assay: paw pressure test (mechanical antinociception), intrathecal drugs; format: in vivo, rat
# Experimental: as §2, §4
# A single injection of clonidine was administered intrathecally and the response measured in the tail flick and paw pressure test. […] Following drug administration, nociceptive testing was performed every 10 minutes for the first 60 minutes and every 30 minutes for the following 120-150 minute period. Results for atipemazole are depicted in FIG. 1A (tail flick) and FIG. 1B (paw pressure).
# as §3
# [4] = tested on: alpha-2 adrenergic receptor; assay: tail flick test (thermal antinociception), intrathecal drugs; format: in vivo, rat
# [5] = tested on: alpha-2 adrenergic receptor; assay: as above; format: in vivo, rat; remark: listed apart in the source
# Experimental: as §2, with “Animals were allowed 3-4 days recovery from surgery and only those free from neurological deficits, such as the hindlimb or forelimb paralysis or gross motor dysfunction, were included in the study. All drugs were injected intrathecally as solutions dissolved in physiological saline (0.9%) through the exteriorized portion of the catheter at a volume of 10 μl, followed by a 10 μl volume of 0.9% saline to flush the catheter.” left out
# The tail flick test (D'amour & Smith, J. Pharmacol. Exp. Ther. 1941 72:74-79) was used to measure the response to a thermal nociceptive stimulus. Radiant heat was applied to the distal third of the animal's tail and the response latency for tail withdrawal from the source was recorded using an analgesia meter (Owen et al., J. Pharmacol. Methods 1981 6:33-37)). […]
# A single injection of clonidine was administered intrathecally and the response measured in the tail flick and paw pressure test. […]
# as §3
# [6] = 24 hours after treatment, atipemazole 0.008 or 0.8 ng combined with norepinephrine
# [7] = atipemazole 0.8 ng with L-norepinephrine 30 μg, three intrathecal injections at 90 minute intervals
# [8] = atipemazole 0.008 or 0.8 ng combined with norepinephrine, x3, 24 hours after
# [9] = combination of norepinephrine 30 μg and atipemazole 0.8 ng, x3 at 90 minute intervals
# [10] = atipemazole 0.08 ng with L-norepinephrine 30 μg intrathecal
# [11] = atipemazole 0.0008, 0.008 and 0.08 ng with clonidine 50 nmoles intrathecal
# [12] = atipemazole 1, 5, 10 μg co-administered with clonidine 200 nmoles intrathecal
# [13] = 24 hours after three successive injections of norepinephrine alone
# [14] = norepinephrine alone, 30 μg x3 at 90 minute intervals
# [15] = single spinal dose of norepinephrine (30 μg), alone
# [16] = clonidine 50 nmoles (13.3 μg) intrathecal, alone
# [17] = clonidine 50 nmoles (13.3 μg) intrathecal, alone, listed as Clonidine
# [18] = clonidine 200 nmoles intrathecal, alone
# [19] = yohimbine 0.0002, 0.005 and 0.02 ng with clonidine 50 nmoles (13.3 μg) intrathecal
compound,measurement,setting,value
CCC1(c2cnc[nH]2)Cc2ccccc2C1 [atipemazole],rightward shift of the L-norepinephrine cumulative dose-response curve,[1]; [6],prevented
same,effect on decline of norepinephrine analgesia on repeated injection,[1]; [7],inhibited the decline of norepinephrine analgesia
same,effect on increase of L-norepinephrine ED50,[1]; [8],completely prevented the increase in ED50 values
same,"analgesic response at 240 minutes, after the third dose",[1]; [9],sustained the maximal analgesic level
same,rightward shift of the L-norepinephrine cumulative dose-response curve,[2]; [6],prevented
same,effect on decline of norepinephrine analgesia on repeated injection,[2]; [7],inhibited the decline of norepinephrine analgesia
same,effect on increase of L-norepinephrine ED50,[2]; [8],completely prevented the increase in ED50 values
same,"analgesic response at 240 minutes, after the third dose",[2]; [9],sustained the maximal analgesic level
same,potency as a displacer of clonidine relative to yohimbine,alpha-2 adrenoceptors,about 100 times
same,effect on norepinephrine analgesia,[3]; [10],extended norepinephrine analgesia
same,effect on clonidine analgesic response,[3]; [11],significantly augmented
same,effect on clonidine response,[3]; [12],decreased clonidine response in the paw pressure test but only at the highest dose
same,effect on norepinephrine analgesia,[4]; [10],extended norepinephrine analgesia
same,effect on clonidine analgesic response,[4]; [11],significantly augmented
same,effect on peak clonidine analgesia,[5]; atipemazole 10 μg (highest dose) with clonidine 200 nmoles intrathecal,almost abolishing the response
same,effect on peak clonidine analgesia,[5]; [12],dose-related decrease
same,dose antagonizing the analgesic action of clonidine,"[5]; intrathecal, co-administered with clonidine 200 nmoles",greater than 1 microgram
"NC[C@H](O)c1ccc(O)c(O)c1 [norepinephrine, L-norepinephrine]",L-norepinephrine ED50 versus saline control group,[1]; [13],increased significantly
same,"analgesic response at 240 minutes, after the third dose",[1]; [14],significantly declined towards pre-drug baseline value
same,L-norepinephrine ED50 versus saline control group,[2]; [13],increased significantly
same,"analgesic response at 240 minutes, after the third dose",[2]; [14],significantly declined towards pre-drug baseline value
same,time at which analgesia terminated,[3]; [15],180 min
same,time of peak analgesia,[3]; [15],30 min
same,time at which analgesia terminated,[4]; [15],180 min
same,time of peak analgesia,[4]; [15],30 min
Clc1cccc(Cl)c1N=C1NCCN1 [clonidine],analgesic response,[3]; [16],submaximal analgesic response
same,analgesic response,[3]; [17],submaximal analgesia
same,analgesic response,[3]; [18],a lesser effect
same,analgesic response,[4]; [16],submaximal analgesic response
same,analgesic response,[4]; [17],submaximal analgesia
same,analgesic response,[4]; [18],maximal analgesic response
COC(=O)[C@@H]1[C@H]2C[C@H]3c4[nH]c5ccccc5c4CCN3C[C@@H]2CC[C@@H]1O [yohimbine],effect on clonidine analgesic response,[3]; [19],significantly augmented
same,effect on clonidine analgesic response,[4]; [19],significantly augmented
